Measurements from patent US9416348B2, “Hepatocyte-like cells and uses thereof” (priority 2010, dated 2016).

System: iHep cells
Assay: CYP metabolism assay, iHep cells incubated with substrate, metabolite by LC-MS/MS
Settings: for 4′-OH-Diclotenac: mouse, 3 h
Experimental: To determine Alb secretion, TTFs transduced with three factors were cultured in the medium without phenol red. Culture supernatant was collected 24 h after medium change. The amount of Alb in the supernatant was determined by the mouse albumin ELISA kit (BETHYL LABORATORY) according to the manufacturer's instructions. […] The supernatants were collected for measurement of indicated productions by LC-MS/MS (AGILENT 1200 HPLC and ABI 4000 mass-spectrometer). Freshly isolated hepatocytes were used as a positive control. Total cell protein amount was used to normalize the data.
Metabolites of these chemicals were measured by liquid chromatography-tandem mass spectrometry (LC/MS/MS) according to each standard curve.

O=C(O)Cc1ccccc1Nc1c(Cl)cccc1Cl [Diclofenac, diclofenac]
4′-OH-Diclotenac (12.5 μM): 0.0 pmol/min/mg protein
4′-OH-Diclotenac (25 μM): 17.0 ± 8.0 pmol/min/mg protein
4′-OH-Diclotenac (50 μM): 195.4 ± 16.0 pmol/min/mg protein
4′-OH-Diclotenac (100 μM): 483.3 ± 60.1 pmol/min/mg protein

C[C@]12CC[C@H]3[C@@H](CCC4=CC(=O)CC[C@@]43C)[C@@H]1CC[C@@H]2O [Testosterone, testosterone]
metabolism by iHep cells (iHep cells, P<0.05): metabolized
